# In patent publication US20110130346A1, “PEPTIDE CONJUGATES FOR DELVERY OF BIOLOGICALLY ACTIVE COMPOUNDS” (ISIS INNOVATION LIMITED, priority 2008, published 2011):
# Entries after “also recorded” stand apart in the source; their conditions may differ.
# Legend:
# [1] = system: glucose transporters; assay: Example 3: glucose transporter inhibitors and hexose analogues in glucose-enhanced 2′OMePS AO uptake into TA muscle; format: in vivo; details: 8 week old mdx mice; for effect of sugar or analogue used in place of D-glucose in 2′OMePS AO formulation on dystrophin-positive fibres: same concentration as D-glucose, intramuscular, two weeks; for effect of inhibitor on the enhancing effect of 5% D-glucose formulation of 2′OMePS AO: intramuscular into TA
# From the text: To investigate whether carrier-mediated glucose uptake might be implicated in the mechanism of enhanced AO uptake into muscle, we examined the effects of a range of glucose concentrations using glucose-formulated 2′OMePS AOs. This was studied again via intramuscular administration into 8 week old mdx mice. […] The activity of glucose transporters is known to be stereospecific in that only D-glucose isomers can be actively transported. To further test the idea carrier-mediated glucose uptake might be implicated in the mechanism and to rule out possible osmotic effects of the glucose formulation we investigated the activities of D- and L-glucose isomers in AO formulations. The same concentration of L-glucose was formulated with 2′OMePS AOs and delivered to 8 week old mdx mice by local intramuscular injection.
# To investigate whether specific glucose transporters might be implicated directly in the mechanism of enhanced AO uptake we tested whether or not various inhibitors of glucose transporter function could abolish the enhanced uptake of 2′OMePS AOs into TA muscles in 8 week old mdx mice. Two inhibitor compounds, phloretin and phloridzin, are well-characterised inhibitors of glucose transport. […] That enhanced AO uptake and activity was dependent on a phloretin-sensitive pathway, is a hallmark of involvement of the GLUT family of facilitative glucose transporters. Given that glucose transporter-mediated glucose uptake appeared mechanistically important, we further investigated this by studying whether any products of intracellular glucose metabolism might be implicated downstream in the uptake mechanism. To do this we investigated a glucose analogue, 3-O-methyl glucose (3-OMG) that is effectively transported by glucose transporters but not subject to phosphorylation by glucokinase by using the same concentration of 3-OMG formulated with 2′OMePS AO. Two weeks following intramuscular injection TA muscles cryosections were assayed by immunohistochemistry.
# For intramuscular studies the TA muscle of each experimental mdx mouse was injected with a 40 μl dose of PNA and PNA-peptide conjugates with saline at a final concentration of 125 μg/ml, and the contralateral muscle was injected with saline. For systemic intravenous injections, X μg PNA or PNA-peptide conjugates in 80 μl saline buffer were injected into tail vein of mdx mice at the final dose of 25 mg/kg and 6 mg/kg, respectively. The animals were killed at various time points after injection by CO2 inhalation and tissues were removed and snap-frozen in liquid nitrogen-cooled isopentane and stored at −80° C.
# Sections of 8 μm were cut from at least two-thirds of the muscle length of TA, quadriceps, gastrocnemius, biceps, abdominal wall and diaphragm muscles and cardiac muscle at 100 μm intervals. The sections were then examined for dystrophin expression with a polyclonal antibody 2166 against the dystrophin carboxyl-terminal region. The maximum number of dystrophin-positive fibres in one section was counted using the Zeiss AxioVision fluorescence microscope. The intervening muscle sections were collected either for RT-PCR analysis and Western blot or as serial sections for immunohistochemistry. Polyclonal antibodies were detected by goat-anti-rabbit IgGs Alexa Fluro 594 (Molecular Probe, UK). Routine haematoxylin and eosin staining was used to examine overall muscle morphology and assess the level of infiltrating mononuclear cells. The serial sections were also stained with a panel of polyclonal and monoclonal antibodies for the detection of DAPC protein components. Rabbit polyclonal antibody to neuronal nitric oxide synthase (nNOS) and mouse monoclonal antibodies to β dystroglycan, α-sarcoglycan and β-sarcoglycan were used according to manufacturer's instructions (Novocastra, UK). Polyclonal antibodies were detected by goat-anti-rabbit IgGs Alexa 594 and the monoclonal antibodies by goat-anti-mouse IgGs Alexa 594 (Molecular Probe, UK). […]
# [2] = system: exon and intron 23 of the dystrophin gene; assay: Example 1: intramuscular injection into TA muscle of mdx mice, count of dystrophin-positive fibres by immunohistochemistry; format: in vivo; details: for dose dependence of dystrophin induction: 5 μg, 10 μg and 20 μg intramuscular; for number of dystrophin-positive fibres per TA muscle: 20 μg intramuscular
# Description: Three age groups of mdx mice were used: 20-21 days (referred to as 3 weeks; five mice for each test and control groups), 2-month old (five mice for test groups and control groups), and 5-6 months (referred to 6 months, six mice for each testing and control group). Mice were killed by cervical dislocation at desired time points, and muscles were snap-frozen in liquid nitrogen-cooled isopentane and stored at −80° C.
# One tibialis anterior (TA) muscle of each experimental mdx mouse was injected with a 40 μl dose (3-week-old group injected with 10 μl) of PNA-peptide conjugates with saline at a final concentration of 125 μg/ml, and the contralateral muscle was injected with saline. The animals were sacrificed at various time points after injection, the muscles were removed and snap-frozen in liquid nitrogen-cooled isopentane and stored at −80° C. To examine the dose-response profile, 2-month old mdx mice received the injections of 10 μg and 20 μg of PNA-peptide conjugates.
# Sections of 8 μm were cut from at least two-thirds of muscle length of TA muscles at 100 μm intervals. The sections were then examined for dystrophin expression with a polyclonal antibody 2166 against the dystrophin carboxyl-terminal dystrophin. The maximum number of dystrophin-positive fibres in one section was counted using the Zeiss AxioVision fluorescence microscope. The intervening muscle sections were collected either for Western blot or as serial sections for immunohistochemistry. Polyclonal antibodies were detected by goat-anti-rabbit IgGs Alexa Fluro 594 (Molecular probe). Routine H&E staining was used to examine overall muscle morphology and assess the level of infiltrating mononuclear cells.
# [3] = system: exon 23 of the dystrophin transcript; assay: RT-PCR of exon 23 skipping after lipofectin transfection of H2K mdx cells; format: cell-based, mouse; details: 250 nm
# Description: The H2K mdx myoblasts were cultured at 33° C. under a 10% CO2/90% air atmosphere in high-glucose DMEM supplemented with 20% fetal calf serum, 0.5% chicken embryo extract (PAA laboratories Ltd, Yeovil, UK), and 20 units/ml γ-interferon (Roche applied science, Penzberg, Germany). Cells were then treated with trypsin and plated at 2×10^4 cells per well in 24-well plates coated with 200 ug/ml gelatine (Sigma). H2K mdx cells were transfected 24 h after trypsin treatment in a final volume of 0.5 ml of antibiotic- and serum-free Opti-MEM (Life Technologies). Each well was treated with 250 nM of PNA-peptide complexed with corresponding amounts of lipofectin (weight ratio 1:2=oligolipofectin) (Life Technologies) according to the supplier's instructions. After 4 h of incubation, the transfection medium was replaced with DMEM supplemented medium.
# Cells were transfected as triplicate wells with Lipofectin-Oligonucleotide complexes and total cellular RNA was then extracted 24 h after transfection with RNAeasy mini kit (Qiagen) and 200 ng of RNA template was used for 20 μl RT-PCR with OneStep RT-PCR kit (Qiagen, West Sussex, UK). The primer sequences for the initial RT-PCR were Exon20Fo 5′-[…]-3′ (SEQ ID NO: 125) and Ex26Ro 5′-[…]-3′ (SEQ ID NO: 126) for amplification of mRNA from exons 20 to 26. The cycling conditions were 95° C. for 30 sec, 55° C. for lmin, and 72° C. for 2 min for 30 cycles. […]
# [4] = 2-month old mdx mice, 5 μg intramuscular
# [5] = 2-month old mdx mice, single 5 μg intramuscular injection into TA, two weeks
compound,measurement,setting,value
OCC1OC(O)CC(O)C1O (stereo not drawn) [2-DG],effect of sugar or analogue used in place of D-glucose in 2′OMePS AO formulation on dystrophin-positive fibres,[1],abolished
"CO[C@@H]([C@H](O)[C@H](O)CO)[C@@H](O)C=O [3-OMG, 3-O-methyl glucose]",effect of sugar or analogue used in place of D-glucose in 2′OMePS AO formulation on dystrophin-positive fibres,[1],decrease in the number of dystrophin-positive fibres
CO[C@H]1O[C@H](CO)[C@H](O)[C@H](O)[C@H]1O [AMG],effect of sugar or analogue used in place of D-glucose in 2′OMePS AO formulation on dystrophin-positive fibres,[1],abolished
O=C[C@H](O)[C@@H](O)[C@@H](O)[C@H](O)CO [D-galactose],effect of sugar or analogue used in place of D-glucose in 2′OMePS AO formulation on dystrophin-positive fibres,[1],replicated
O=C[C@@H](O)[C@@H](O)[C@H](O)[C@H](O)CO [D-mannose],effect of sugar or analogue used in place of D-glucose in 2′OMePS AO formulation on dystrophin-positive fibres,[1],replicated
O=C[C@@H](O)[C@H](O)[C@@H](O)[C@@H](O)CO [L-glucose],effect of sugar or analogue used in place of D-glucose in 2′OMePS AO formulation on dystrophin-positive fibres,[1],significant decrease in number of dystrophin-positive myofibres
O=C(CCc1ccc(O)cc1)c1c(O)cc(O)cc1O [phloretin],effect of inhibitor on the enhancing effect of 5% D-glucose formulation of 2′OMePS AO,[1],completely abolished
O=C(CCc1ccc(O)cc1)c1c(O)cc(O)cc1O[C@@H]1O[C@H](CO)[C@@H](O)[C@H](O)[C@H]1O [phloridzin],effect of inhibitor on the enhancing effect of 5% D-glucose formulation of 2′OMePS AO,[1],partially but significantly abolished
ASSLNIA-S-S-Lggccaaacctcggcttacct [MSP],dystrophin-positive fibres observed (in words),[2]; [4],large number of dystrophin-positive fibres
same,focal areas with strong dystrophin-positive muscle fibres,[2]; [4],observed
same,dose dependence of dystrophin induction,[2]; 2-month old mdx mice,not significant
same,number of dystrophin-positive fibres,"[2]; 6-month old mdx mice, single 5 μg intramuscular",237±58
IVADNLQQQNTAPQIGTVNSQ-S-S-Lggccaaacctcggcttacct [AAV8],dystrophin-positive fibres observed (in words),[2]; [4],large number of dystrophin-positive fibres
same,dose dependence of dystrophin induction,[2]; 2-month old mdx mice,significant difference between 10 μg and 5 μg injection; also recorded: no further increase
same,number of dystrophin-positive fibres,"[2]; 2-month old mdx mice, 10 μg intramuscular (printed 'bug')",308±20
same,number of dystrophin-positive fibres per TA muscle,[2]; 2-month old mdx mice,282±63
same,number of dystrophin-positive fibres,[2]; [5],171±40
same,removal of exon 23 from the dystrophin transcript (RT-PCR),[3],efficient removal of exon 23
TVAVNLQSSSTDPATGDVHVM-S-S-Lggccaaacctcggcttacct [AAV6],dystrophin-positive fibres in 3-week and 6-month old mice in comparison with 2-month old mice,[2]; 5 μg intramuscular,slightly fewer dystrophin-positive fibres
same,dystrophin-positive fibres observed (in words),[2]; [4],large number of dystrophin-positive fibres
same,focal areas with strong dystrophin-positive muscle fibres,[2]; [4],observed
same,dose dependence of dystrophin induction,[2]; 2-month old mdx mice,"significant difference between 20 μg and 5, 10 μg injection"
same,number of dystrophin-positive fibres per TA muscle,[2]; 2-month old mdx mice,424 (±86)
same,number of dystrophin-positive fibres,[2]; [5],251
